Source: patent US20250136606A1, “MODULATORS OF TRPML, THEIR COMPOSITIONS AND METHODS OF USE” (Caraway Therapeutics, Inc., priority 2021, published 2025)
Where two headings read alike, the source gives them in different places.

What was measured:
Type in all cases: cell-based
TRPML3 = target: T1, TRPML3 (Homo sapiens, UniProt Q8TDD5); assay: Fluorescent TRPML3 assay (performed as for TRPML1, substituting the TRPML3 subtype)
T1 construct: expressed in transfected cells
T1 sequence (Q8TDD5 1-553): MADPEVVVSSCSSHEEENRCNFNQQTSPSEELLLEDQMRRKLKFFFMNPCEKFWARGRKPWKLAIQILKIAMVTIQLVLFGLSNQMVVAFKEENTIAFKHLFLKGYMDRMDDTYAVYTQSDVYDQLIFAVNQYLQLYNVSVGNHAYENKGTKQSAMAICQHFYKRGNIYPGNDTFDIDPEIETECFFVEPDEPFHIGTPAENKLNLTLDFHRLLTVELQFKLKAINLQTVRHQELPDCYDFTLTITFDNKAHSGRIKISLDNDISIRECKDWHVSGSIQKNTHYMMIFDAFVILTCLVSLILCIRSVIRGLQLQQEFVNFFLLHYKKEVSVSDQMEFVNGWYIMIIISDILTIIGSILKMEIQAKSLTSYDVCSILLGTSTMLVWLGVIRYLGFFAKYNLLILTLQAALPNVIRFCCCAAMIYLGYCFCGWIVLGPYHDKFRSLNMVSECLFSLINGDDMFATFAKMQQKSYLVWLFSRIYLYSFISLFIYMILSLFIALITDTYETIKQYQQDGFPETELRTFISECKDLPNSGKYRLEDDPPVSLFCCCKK
Summary of the method: (§1)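 Calcium-influx readout: Fluo4 fluorescence at 480/540 nm, normalised to positive and negative controls per plate, EC50 fitted by non-linear regression. Cells were HEK-293 Trex stable lines, channel expression induced overnight with 0.5 ug/mL doxycycline; tested at 20 micromolar down to 6 nanomolar final, half-log steps, triplicate.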

TRPML1 = TRPML1 (Homo sapiens, UniProt Q9GZU1); assay: Fluorescent TRPML1 assay (Fluo4-AM calcium fluorescence in doxycycline-induced HEK-293 Trex cells)
Sequence of TRPML1 (Q9GZU1 whole entry L15A/L16A/L577A/L578A, form open): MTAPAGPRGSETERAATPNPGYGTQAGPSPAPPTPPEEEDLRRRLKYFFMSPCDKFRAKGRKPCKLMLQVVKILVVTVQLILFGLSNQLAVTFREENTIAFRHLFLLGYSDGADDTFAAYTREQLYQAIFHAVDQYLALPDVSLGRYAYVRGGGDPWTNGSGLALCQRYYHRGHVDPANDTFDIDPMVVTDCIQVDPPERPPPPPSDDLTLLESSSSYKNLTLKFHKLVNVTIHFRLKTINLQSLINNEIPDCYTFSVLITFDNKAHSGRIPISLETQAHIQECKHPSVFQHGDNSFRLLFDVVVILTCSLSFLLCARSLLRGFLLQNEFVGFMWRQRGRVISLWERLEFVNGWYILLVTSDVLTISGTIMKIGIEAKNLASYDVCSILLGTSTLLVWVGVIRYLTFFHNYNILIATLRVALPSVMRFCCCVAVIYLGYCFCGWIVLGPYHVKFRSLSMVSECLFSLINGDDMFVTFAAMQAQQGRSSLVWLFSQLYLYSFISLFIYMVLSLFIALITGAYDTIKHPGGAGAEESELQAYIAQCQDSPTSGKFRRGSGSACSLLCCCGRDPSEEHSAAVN
Summary of the method: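 hTRPML1 (mutated for cell-surface expression) in HEK-293 Trex, dox 0.5 ug/mL o/n; Fluo4-AM 1 uM ~60 min, then ~60 min de-esterification, dark; modified Ringer's + 10 mM Ca. Cmpds 20 uM–6 nM final, half-log, n=3. Ex480/Em540; % activity vs ctrls; EC50 by nonlinear regression.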

TRPML2 = target: T2, TRPML2 (Homo sapiens, UniProt Q8IZK6); assay: Fluorescent TRPML2 assay (performed as for TRPML1, substituting the TRPML2 subtype)
T2 construct: expressed in transfected cells
T2 sequence (Q8IZK6 1-566): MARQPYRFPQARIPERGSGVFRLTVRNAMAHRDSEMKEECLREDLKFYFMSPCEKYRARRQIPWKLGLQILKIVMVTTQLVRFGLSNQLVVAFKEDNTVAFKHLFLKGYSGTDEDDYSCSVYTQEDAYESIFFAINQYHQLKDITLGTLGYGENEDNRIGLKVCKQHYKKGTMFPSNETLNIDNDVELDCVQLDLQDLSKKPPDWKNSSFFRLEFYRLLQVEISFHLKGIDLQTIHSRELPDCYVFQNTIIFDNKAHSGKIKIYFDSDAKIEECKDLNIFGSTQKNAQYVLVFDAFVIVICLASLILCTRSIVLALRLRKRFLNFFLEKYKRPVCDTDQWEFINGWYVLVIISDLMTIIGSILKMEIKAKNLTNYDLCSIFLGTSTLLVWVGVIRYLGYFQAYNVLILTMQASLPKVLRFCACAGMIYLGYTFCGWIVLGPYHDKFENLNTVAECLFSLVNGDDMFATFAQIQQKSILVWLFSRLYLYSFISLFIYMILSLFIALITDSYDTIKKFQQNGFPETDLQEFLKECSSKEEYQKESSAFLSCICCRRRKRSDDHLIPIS
Summary of the method: as §1

EC50 (TRPML3; fluorescent calcium assay) [µM] | EC50 (TRPML1; fluorescent calcium assay) [µM] | EC50 (TRPML2; fluorescent calcium assay) [µM] | EC50 (TRPML3) [µM] | EC50 (TRPML1) [µM] | EC50 (TRPML2) [µM] | Structure (SMILES)
0.5 to 2 | < 0.1 | 0.5 to 2 |  |  |  | C[C@H]1CN(C(=O)OC(C)(C)C)CCN1c1ncnc2c1c(N1CCCC1)cn2-c1ncc(C#N)s1 [Compound 485, tert-butyl (S)-4-(7-(5-cyanothiazol-2-yl)-5-(pyrrolidin-1-yl)-7H-pyrrolo[2,3-d]pyrimidin-4-yl)-3-methylpiperazine-1-carboxylate]
< 0.1 | < 0.1 | < 0.1 |  |  |  | CCCOc1cn(-c2cc(C#N)ccn2)c2ncnc(N3CCN(C(=O)OC(C)(C)C)C[C@@H]3C)c12 [Compound 487, tert-butyl (S)-4-(7-(4-cyanopyridin-2-yl)-5-propoxy-7H-pyrrolo[2,3-d]pyrimidin-4-yl)-3-methylpiperazine-1-carboxylate]
< 0.1 | < 0.1 | 0.1 to 0.5 |  |  |  | C[C@@H]1CN(c2ncnc3c2c(C(F)(F)F)cn3-c2cc(F)cc(F)c2)[C@@H](C)CN1C(=O)OC(C)(C)C [Compound 492]
 |  |  | < 0.1 | < 0.1 | 0.1 to 0.5 | C[C@H]1CN(C(=O)OC(C)(C)C)CCN1c1ncnc2c1c(C(F)(F)F)cn2-c1cc(F)cc(F)c1 [Compound 495]
 |  |  | < 0.1 | < 0.1 | 0.1 to 0.5 | CCCN(C)c1cn(-c2cc(C#N)ccn2)c2ncnc(N3C[C@@H](C)N(C(=O)OC(C)(C)C)C[C@@H]3C)c12 [Compound 499, tert-butyl (2R,5S)-4-(7-(4-cyanopyridin-2-yl)-5-(methyl(propyl)amino)-7H-pyrrolo[2,3-d]pyrimidin-4-yl)-2,5-dimethylpiperazine-1-carboxylate]
 |  |  | 0.1 to 0.5 | < 0.1 | > 2 | C[C@@H]1CN(c2ncnc3c2c(C(F)(F)F)cn3-c2cc(C#N)ccn2)[C@H](C)CN1C(=O)OC(C)(C)C [Compound 503, tert-butyl (2R,5R)-4-(7-(4-cyanopyridin-2-yl)-5-(trifluoromethyl)-7H-pyrrolo[2,3-d]pyrimidin-4-yl)-2,5-dimethylpiperazine-1-carboxylate]
 |  |  | < 0.1 | < 0.1 | 0.1 to 0.5 | C[C@@H]1CN(c2ncnc3c2c(N2CC4(COC4)C2)cn3-c2cc(C#N)ccn2)[C@@H](C)CN1C(=O)OC(C)(C)C [Compound 504, tert-butyl (2R,5S)-4-(7-(4-cyanopyridin-2-yl)-5-(2-oxa-6-azaspiro[3.3]heptan-6-yl)-7H-pyrrolo[2,3-d]pyrimidin-4-yl)-2,5-dimethylpiperazine-1-carboxylate]

The next lines start with the compound.

Structure (SMILES) | EC50 (TRPML3; fluorescent calcium assay) [µM] | EC50 (TRPML1; fluorescent calcium assay) [µM] | EC50 (TRPML2; fluorescent calcium assay) [µM] | EC50 (TRPML3) [µM] | EC50 (TRPML1) [µM] | EC50 (TRPML2) [µM]
CCN(CCOC)c1cn(-c2cc(C#N)ccn2)c2ncnc(N3CCN(C(=O)OC(C)(C)C)C[C@@H]3C)c12 [Compound 486, tert-butyl (S)-4-(7-(4-cyanopyridin-2-yl)-5-(ethyl(2-methoxyethyl)amino)-7H-pyrrolo[2,3-d]pyrimidin-4-yl)-3-methylpiperazine-1-carboxylate] | < 0.1 | < 0.1 | 0.1 to 0.5 |  |  | 
C[C@@H]1CN(c2ncnc3c2c(N2CCC2)cn3-c2cc(C#N)ccn2)[C@@H](C)CN1C(=O)OC(C)(C)C [Compound 489, tert-butyl (2R,5S)-4-(5-(azetidin-1-yl)-7-(4-cyanopyridin-2-yl)-7H-pyrrolo[2,3-d]pyrimidin-4-yl)-2,5-dimethylpiperazine-1-carboxylate] | < 0.1 | < 0.1 | < 0.1 |  |  | 
C[C@@H]1CN(c2ncnc3c2c(N2CCC2)cn3-c2cccc(Cl)c2)[C@@H](C)CN1C(=O)OC(C)(C)C [Compound 490, tert-butyl (2R,5S)-4-(5-(azetidin-1-yl)-7-(3-chlorophenyl)-7H-pyrrolo[2,3-d]pyrimidin-4-yl)-2,5-dimethylpiperazine-1-carboxylate] | < 0.1 | < 0.1 | < 0.1 |  |  | 
C[C@@H]1CN(c2ncnc3c2c(C(F)(F)F)cn3-c2cccc(Cl)c2)[C@@H](C)CN1C(=O)OC(C)(C)C [Compound 491, tert-Butyl (2R,5S)-4-(7-(3-chlorophenyl)-5-(trifluoromethyl)-7H-pyrrolo[2,3-d]pyrimidin-4-yl)-2,5-dimethylpiperazine-1-carboxylate] | < 0.1 | < 0.1 | 0.1 to 0.5 |  |  | 
C[C@H]1CN(C(=O)OC(C)(C)C)CCN1c1ncnc2c1c(N1CCC1)cn2-c1cccc(Cl)c1 [Compound 493, tert-butyl (S)-4-(5-(azetidin-1-yl)-7-(3-chlorophenyl)-7H-pyrrolo[2,3-d]pyrimidin-4-yl)-3-methylpiperazine-1-carboxylate] | < 0.1 | < 0.1 | < 0.1 |  |  | 
C[C@H]1CN(C(=O)OC(C)(C)C)CCN1c1ncnc2c1c(C(F)(F)F)cn2-c1cccc(Cl)c1 [Compound 494, tert-butyl (S)-4-(7-(3-chlorophenyl)-5-(trifluoromethyl)-7H-pyrrolo[2,3-d]pyrimidin-4-yl)-3-methylpiperazine-1-carboxylate] |  |  |  | < 0.1 | < 0.1 | 0.1 to 0.5
C[C@@H]1CN(c2ncnc3c2c(C(F)(F)F)cn3-c2cccc(F)c2)[C@@H](C)CN1C(=O)OC(C)(C)C [Compound 496, tert-butyl (2R,5S)-4-(7-(3-fluorophenyl)-5-(trifluoromethyl)-7H-pyrrolo[2,3-d]pyrimidin-4-yl)-2,5-dimethylpiperazine-1-carboxylate] |  |  |  | < 0.1 | < 0.1 | 0.1 to 0.5
C[C@@H]1CN(c2ncnc3c2c(N2CCC2)cn3-c2cc(F)cc(F)c2)[C@@H](C)CN1C(=O)OC(C)(C)C [Compound 497, tert-butyl (2R,5S)-4-(5-(azetidin-1-yl)-7-(3,5-difluorophenyl)-7H-pyrrolo[2,3-d]pyrimidin-4-yl)-2,5-dimethylpiperazine-1-carboxylate] |  |  |  | < 0.1 | < 0.1 | < 0.1
C[C@H]1CN(C(=O)OC(C)(C)C)CCN1c1ncnc2c1c(N1CCC1)cn2-c1cc(F)cc(F)c1 [Compound 498, tert-butyl (S)-4-(5-(azetidin-1-yl)-7-(3,5-difluorophenyl)-7H-pyrrolo[2,3-d]pyrimidin-4-yl)-3-methylpiperazine-1-carboxylate] |  |  |  | < 0.1 | < 0.1 | < 0.1
C=CCOC(=O)N(CCC)c1cn(-c2cc(Cl)ccn2)c2ncnc(N3C[C@@H](C)N(C(=O)OC(C)(C)C)C[C@@H]3C)c12 [Compound 500, tert-butyl (2R,5S)-4-(5-(((allyloxy)carbonyl)(propyl)amino)-7-(4-chloropyridin-2-yl)-7H-pyrrolo[2,3-d]pyrimidin-4-yl)-2,5-dimethylpiperazine-1-carboxylate] |  |  |  | 0.1 to 0.5 | 0.1 to 0.5 | 0.5 to 2
C[C@H]1CN(c2ncnc3c2c(C(F)(F)F)cn3-c2cc(C#N)ccn2)[C@@H](C)CN1C(=O)OC(C)(C)C [Compound 502, tert-butyl (25,5S)-4-(7-(4-cyanopyridin-2-yl)-5-(trifluoromethyl)-7H-pyrrolo[2,3-d]pyrimidin-4-yl)-2,5-dimethylpiperazine-1-carboxylate] |  |  |  | < 0.1 | < 0.1 | 0.1 to 0.5
C[C@@H]1CN(c2ncnc3c2c(C(F)(F)F)cn3-c2cc(F)ccn2)[C@@H](C)CN1C(=O)OC(C)(C)C [Compound 505, tert-butyl (2R,5S)-4-(7-(4-fluoropyridin-2-yl)-5-(trifluoromethyl)-7H-pyrrolo[2,3-d]pyrimidin-4-yl)-2,5-dimethylpiperazine-1-carboxylate] |  |  |  | < 0.1 | < 0.1 | > 2
C[C@@H]1CN(c2ncnc3c2c(C(F)(F)F)cn3-c2cc(Cl)ccn2)[C@@H](C)CN1C(=O)OC(C)(C)C [Compound 506, tert-butyl (2R,5S)-4-(7-(4-chloropyridin-2-yl)-5-(trifluoromethyl)-7H-pyrrolo[2,3-d]pyrimidin-4-yl)-2,5-dimethylpiperazine-1-carboxylate] |  |  |  | < 0.1 | < 0.1 | 0.5 to 2
